The values that follow come from patent publication US20070219183A1, “Dihydropyrazolo[1,5-A]pyrimidine and dihydroimidazo[1,5-A]pyrimidine derivatives and methods of use thereof” (Wyeth, priority 2006, published 2007).

pIC50: −log10 of the molar value. Bounds are passed on as bounds.

This assay has as its target T1, Flag/GST-tagged recombinant human B-Raf (Homo sapiens, UniProt P15056).
T1 construct: Flag; GST; made in house; host or cells: Sf9 insect cells (B-Raf); E. coli (Mek-1-GST)
Briefly: B-Raf Kinase to MEK1 ELISA. In kind it is biochemical. The note with it: phosphorylation of GST-MEK1 (50 nM final), phospho-MEK1 antibody/Europium readout; 60 minutes at RT. The source says:
• TITLE: B-Raf Kinase to MEK1 ELISA • PURPOSE: To discover B-Raf Kinase inhibitors that can inhibit growth of tumor cells which contain oncogenic forms of Receptor Tyrosine Kinases or K-Ras, or B-Raf kinase.
Reagents: Flag/GST-tagged recombinant human B-Raf produced in Sf9 insect cells, human non-active Mek-1-GST (recombinant protein produced in E. coli); and a phospho-MEK1 specific poly-clonal Ab from Cell Signaling Technology (cat. #9121).
B-Raf-1 is used to phosphorylate GST-MEK1. MEK1 phosphorylation is measured by a phospho-specific antibody (from Cell Signaling Technology, cat. #9121) that detects phosphorylation of two serine residues at positions 217 and 221 on MEK1.
1. Assay Dilution Buffer (ADB): 20 mM MOPS, pH 7.2, 25 mM β-glycerol phosphate, 5 mM EGTA, 1 mM sodium orthovanadate, 1 mM dithiothreitol.
2. Magnesium/ATP Cocktail: 200 μM cold ATP and 40 mM magnesium chloride in ADB.
4. Active Kinase: Active B-Raf: used at ˜20 ng per assay point.
5. Non-active GST-MEK1: Use at 100 nM (50 nM final).
7. Anti-GST Ab (Pharmacia)
8. Anti-rabbit Ab/Europium conjugate (Wallac)
1. Add 25 μl of ADB containing B-Raf and Mek per assay (i.e. per well of a 96 well plate)
2. Add 25 μl of 0.2 mM ATP and 40 mM magnesium chloride in ADB.
3. Incubate for 60 minutes at RT in a shaking incubator.
4. Transfer this mixture to an anti-GST Ab coated 96 well plate (Nunc Immunosorb plates coated o/n with a-GST.
5. Incubate for 60 minutes at 30° C. in a shaking incubator
6. Wash 3× with TBST, add Anti-Phospho MEK1 (1:1000)
7. Incubate for 60 minutes at 30° C. in a shaking incubator
8. Wash 3× with TBST, add Anti-rabbit Ab/Europium conjugate (Wallac) (1:500)
9. Incubate for 60 minutes at 30° C. in a shaking incubator
10. Add 100 ul of Wallac Delfia Enhancement Solution and shake for 10 minutes.
11. Read plates in Wallac Victor model Plate Reader.
12. Collect data analyze in Excel for single point and IC50 determinations.
• Single point assay—% inhibition at […] (% Inhibition=1−cpd.treated sample/untreated control) • IC50 determinations—done on cpds from single pt assays with >80% inhibition. Typically Raf-1 assay is run at cpd concentrations from 10 μM to 30 nM in half log dilutions. (% inhibition is determined for each cpd concentration) • Data handling—Data is analyzed in Excel, and will transferred to Radis.

T1 sequence (P15056 whole entry): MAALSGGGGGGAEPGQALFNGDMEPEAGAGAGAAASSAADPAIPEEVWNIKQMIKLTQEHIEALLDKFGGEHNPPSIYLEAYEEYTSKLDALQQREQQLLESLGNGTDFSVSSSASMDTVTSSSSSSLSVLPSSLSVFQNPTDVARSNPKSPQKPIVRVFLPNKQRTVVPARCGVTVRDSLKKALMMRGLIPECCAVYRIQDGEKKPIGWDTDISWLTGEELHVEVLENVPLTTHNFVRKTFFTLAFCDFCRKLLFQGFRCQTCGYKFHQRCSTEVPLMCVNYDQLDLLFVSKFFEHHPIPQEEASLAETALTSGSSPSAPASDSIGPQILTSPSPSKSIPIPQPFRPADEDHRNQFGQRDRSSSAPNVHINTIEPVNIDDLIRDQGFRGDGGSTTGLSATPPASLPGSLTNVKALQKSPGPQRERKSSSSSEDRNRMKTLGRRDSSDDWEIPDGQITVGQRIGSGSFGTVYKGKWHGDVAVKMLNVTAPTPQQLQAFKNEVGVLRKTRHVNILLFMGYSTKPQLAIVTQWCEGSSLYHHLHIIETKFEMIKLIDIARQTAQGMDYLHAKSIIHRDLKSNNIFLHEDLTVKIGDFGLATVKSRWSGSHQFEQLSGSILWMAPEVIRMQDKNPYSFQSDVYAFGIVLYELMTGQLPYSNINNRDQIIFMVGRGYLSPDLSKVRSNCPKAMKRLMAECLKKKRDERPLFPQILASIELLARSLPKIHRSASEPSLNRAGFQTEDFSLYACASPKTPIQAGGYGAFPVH

The term pIC50 denotes −log10 of the IC50, conventionally taken in molar units. For `O=C(Nc1cccc(C2=CCNc3ccnn32)c1)c1cccc(C(F)(F)F)c1` [Example 1, N-[3-(4,5-dihydropyrazolo[1,5-a]pyrimidin-7-yl)phenyl]-3-(trifluoromethyl)benzamide], the pIC50 is less than 5.00. For `CS(=O)(=O)N1CC=C(c2cccc(NC(=O)c3cccc(C(F)(F)F)c3)c2)n2nccc21` [Example 2, N-{3-[4-(Methylsulfonyl)-4,5-dihydropyrazolo[1,5-a]pyrimidin-7-yl]phenyl}-3-(trifluoromethyl)benzamide] the value was 6.17. For `COC(=O)N1CC=C(c2cccc(NC(=O)c3cccc(C(F)(F)F)c3)c2)n2nccc21` [Example 3, Methyl 7-(3-{[3-(trifluoromethyl)benzoyl]amino}phenyl)pyrazolo[1,5-a]pyrimidine-4(5H)-carboxylate] the value was 6.79; for `CCOC(=O)N1CC=C(c2cccc(NC(=O)c3cccc(C(F)(F)F)c3)c2)n2nccc21` [Example 4, Ethyl 7-(3-{[3-(trifluoromethyl)benzoyl]amino}phenyl)pyrazolo[1,5-a]pyrimidine-4(5H)-carboxylate], 6.43. The same measure for `CC(C)NC(=O)N1CC=C(c2cccc(NC(=O)c3cccc(C(F)(F)F)c3)c2)n2nccc21` [Example 5, N-isopropyl-7-(3-{[3-(trifluoromethyl)benzoyl]amino}phenyl)pyrazolo[1,5-a]pyrimidine-4(5H)-carboxamide]: 5.79; for `CC(C)(C)OC(=O)N1CC=C(c2cccc(NC(=O)c3cccc(C(F)(F)F)c3)c2)n2nccc21` [Example 6, tert-Butyl 7-(3-{[3-(trifluoromethyl)benzoyl]amino}phenyl)pyrazolo[1,5-a]pyrimidine-4(5H)-carboxylate]: 6.09.

Consider `CC#CCN1CC=C(c2cccc(NC(=O)c3cccc(C(F)(F)F)c3)c2)n2nccc21` [Example 7, N-[3-(4-But-2-yn-1-yl-4,5-dihydropyrazolo[1,5-a]pyrimidin-7-yl)phenyl]-3-(trifluoromethyl)benzamide], for which the pIC50 was 6.06.

In the case of `CCOC(=O)c1cnn2c1NCC=C2c1cccc(NC(=O)c2cccc(C(F)(F)F)c2)c1` [Example 8, Ethyl 7-(3-{[3-(trifluoromethyl)benzoyl]amino}phenyl)-4,5-dihydropyrazolo[1,5-a]pyrimidine-3-carboxylate], the pIC50 is 6.56.

`CCNC(=O)N1CC=C(c2cccc(NC(=O)c3cccc(C(F)(F)F)c3)c2)n2nccc21` [Example 9, N-Ethyl-7-(3-{[3-(trifluoromethyl)benzoyl]amino}phenyl)pyrazolo[1,5-a]pyrimidine-4(5H)-carboxamide]: the pIC50 is less than 5.00. For `CC(=O)N1CC=C(c2cccc(NC(=O)c3cccc(C(F)(F)F)c3)c2)n2nccc21` [Example 10, N-[3-(4-Acetyl-4,5-dihydropyrazolo[1,5-a]pyrimidin-7-yl)phenyl]-3-(trifluoromethyl)benzamide] the value was 5.42. For `CCOC(=O)c1cnn2c1N(C(C)=O)CC=C2c1cccc(NC(=O)c2cccc(C(F)(F)F)c2)c1` [Example 11, Ethyl 4-acetyl-7-(3-{[3-(trifluoromethyl)benzoyl]amino}phenyl)-4,5-dihydropyrazolo[1,5-a]pyrimidine-3-carboxylate] the value was 6.24.

For `CC(C)(C)OC(=O)N1CC=C(c2cccc(N(C(=O)OC(C)(C)C)C(=O)c3cccc(C(F)(F)F)c3)c2)n2nccc21` [Example 12, tert-Butyl 7-(3-{(tert-butoxycarbonyl)[3-(trifluoromethyl)benzoyl]amino}phenyl)pyrazolo[1,5-a]pyrimidine-4(5H)-carboxylate 4(5H)-carboxylate], the pIC50 is less than 5.00. The same measure for `CCOC(=O)c1cnn2c1N(C(=O)OC)CC=C2c1cccc(NC(=O)c2cccc(C(F)(F)F)c2)c1` [Example 13, 3-Ethyl 4-methyl 7-(3-{[3-(trifluoromethyl)benzoyl]amino}phenyl)pyrazolo[1,5-a]pyrimidine-3,4(5H)-dicarboxylate]: 6.90; for `CC(C)(C)OC(=O)NCC(=O)N1CC=C(c2cccc(NC(=O)c3cccc(C(F)(F)F)c3)c2)n2nccc21` [Example 14, tert-Butyl {2-oxo-2-[7-(3-{[3-(trifluoromethyl)benzoyl]amino}phenyl)pyrazolo[1,5-a]pyrimidin-4(5H)-yl]ethyl}carbamate]: less than 5.00. The same measure for `NCC(=O)N1CC=C(c2cccc(NC(=O)c3cccc(C(F)(F)F)c3)c2)n2nccc21` [Example 15, N-[3-(4-Glycyl-4,5-dihydropyrazolo[1,5-a]pyrimidin-7-yl)phenyl]-3-(trifluoromethyl)benzamide]: less than 5.00; for `CC(=O)NCC(=O)N1CC=C(c2cccc(NC(=O)c3cccc(C(F)(F)F)c3)c2)n2nccc21` [Example 16, N-{3-[4-(N-Acetylglycyl)-4,5-dihydropyrazolo[1,5-a]pyrimidin-7-yl]phenyl}-3-(trifluoromethyl)benzamide]: 5.75; for `CC(C)(C)OC(=O)NCCC(=O)N1CC=C(c2cccc(NC(=O)c3cccc(C(F)(F)F)c3)c2)n2nccc21` [Example 17, tert-Butyl {3-oxo-3-[7-(3-{[3-(trifluoromethyl)benzoyl]amino}phenyl)pyrazolo[1,5-a]pyrimidin-4(5H)-yl]propyl}carbamate]: 6.41.

On to `NCCC(=O)N1CC=C(c2cccc(NC(=O)c3cccc(C(F)(F)F)c3)c2)n2nccc21` [Example 18, N-[3-(4-β-Alanyl-4,5-dihydropyrazolo[1,5-a]pyrimidin-7-yl)phenyl]-3-(trifluoromethyl)benzamide], for which the negative logarithm of the IC50 (pIC50) was less than 5.00. The same measure for `CC(=O)NCCC(=O)N1CC=C(c2cccc(NC(=O)c3cccc(C(F)(F)F)c3)c2)n2nccc21` [Example 19, N-{3-[4-(N-Acetyl-β-alanyl)-4,5-dihydropyrazolo[1,5-a]pyrimidin-7-yl]phenyl}-3-(trifluoromethyl)benzamide]: 6.15. The same measure for `O=C(Nc1ccc(Cl)c(C2=CCNc3ccnn32)c1)c1cccc(C(F)(F)F)c1` [Example 20, N-[4-Chloro-3-(4,5-dihydropyrazolo[1,5-a]pyrimidin-7-yl)phenyl]-3-(trifluoromethyl)benzamide]: 6.79.
